Assay results: patent publication US20140194499A1, “Polyprenylated Benzoylphloroglucinols With Anticancer Activity” (Hong Kong Baptist University, priority 2013, published 2014)
Read-outs that look alike come from different tables or passages of the source.

Legend:
Format in all cases: cell-based
[1] = test system: SMMC-7721 (human hepatocellular carcinoma); experiment: MTT cytotoxicity assay, SMMC-7721; conditions: SMMC-7721 cells
Experimental: (§1) In the present invention, garciesculentones A and C (compounds 1 and 2) are evaluated for their cytotoxicity against two human hepatoma carcinoma (SMMC-7721 and HepG2) and two human breast adenocarcinoma cell lines (MCF-7 and MDA-MB-231) using MTT assay, palcitaxel is used as positive control. […] In practice, an effective concentration of the tested compound to kill a target cancer cell in vitro is normally about double of the corresponding IC50 value. In addition, wound healing assay is conducted to test whether two novel compounds could affect cell motility.
(§2) Cytotoxicity Assay. Cytotoxic activities of all isolates were evaluated by MTT assay using SMMC-7721 (human hepatocellular carcinoma), HepG2 (human hepatocellular carcinoma), MCF-7 (human breast adenocarcinoma), and MDA-MB-231 (human breast adenocarcinoma). Paclitaxel was used as positive control. The detailed methodology for cytotoxicity assay has already been described in a previous report in Xia, Z.-X.; Zhang, D.-D.; Liang, S.; Lao, Y.-Z.; Zhang, H.; Tan, H.-S.; Chen, S.-L.; Wang, X.-H.; Xu, H.-X., Bioassay-Guided Isolation of Prenylated Xanthones and Polycyclic Acylphloroglucinols from the Leaves of Garcinia nujiangensis. Journal of Natural Products 2012.

[2] = test system: MDA-MB-231 (human breast adenocarcinoma); experiment: MTT cytotoxicity assay, MDA-MB-231; conditions: MDA-MB-231 cells
Experimental: as §1, §2

[3] = test system: human esophageal carcinoma (ECA109) cells; experiment: Wound healing assay (cell migration); conditions: 10 and 20 μg/mL, 36 hours
Experimental: as §1
Wound healing assay. A wound healing assay was performed by using a modified procedure described previously in Jones, J. I.; Gockerman, A.; Busby, W. H., Jr.; Wright, G.; Clemmons, D. R., Insulin-like growth factor binding protein 1 stimulates cell migration and binds to the alpha 5 beta 1 integrin by means of its Arg-Gly-Asp sequence. Proc Nall Acad Sci USA 1993, 90 (22), 10553-7. Briefly, cells were plated in 24 wells plate at 70% confluence in conditioned medium. […] Cell migration into the wound surface was monitored by Olympus 1X71 microscopy and digitally photographed.

[4] = test system: MCF-7 (human breast adenocarcinoma); experiment: MTT cytotoxicity assay, MCF-7
Experimental: as §1, §2

[5] = test system: HepG2 (human hepatocellular carcinoma); experiment: MTT cytotoxicity assay, HepG2; conditions: HepG2 cells, read-out: Cytotoxicity IC50, HepG 2
Experimental: as §1, §2

| Molecule | IC50 [1] | IC50 [2] | Cell migration into the wound area (antimigration effect) [3] | IC50 ([4]; MCF-7 cells) | IC50 [5] | IC50 ([1]; Homo sapiens) | IC50 ([2]; Homo sapiens) | IC50 ([4]; Homo sapiens, MCF7, MCF-7 cells) | IC50 ([5]; Homo sapiens) |
| --- | --- | --- | --- | --- | --- | --- | --- | --- | --- |
| Garciesculentone C [Compound 2] | 17.5 µM | 21.5 µM | do not migrate into and completely close the wound | 11.1 µM | 21.9 µM |  |  |  |  |
| CC(C)=CC[C@H]1C[C@@]23C[C@H](CC=C(C)C)C(C)(C)[C@@](CC=C(C)C)(C(=O)C(OC(=O)c4ccc(O)c(O)c4)=C2OC1(C)C)C3=O (relative stereo) [Compound 1, Garciesculentone A] | 10.8 µM | 16.4 µM | do not migrate into and completely close the wound | 20.3 µM | 43.2 µM |  |  |  |  |
| CC(=O)O[C@H]1C(=O)[C@@]2(C)[C@H]([C@H](OC(=O)c3ccccc3)[C@]3(O)C[C@H](OC(=O)[C@H](O)[C@@H](NC(=O)c4ccccc4)c4ccccc4)C(C)=C1C3(C)C)[C@]1(OC(C)=O)CO[C@@H]1C[C@@H]2O [Palcitaxel, Paclitaxel, reference compound] |  |  |  |  |  | 0.0091 µM | 0.0082 µM | 0.0015 µM | 0.0046 µM |
